Measurements published in publication PMC11995724, “Antibiotic target discovery by integrated phenotypic and activity-based profiling of electrophilic fragments” (Cell chemical biology, 2025).

Test: in vitro
Conditions: human, hek293t cells

Row | Structure (SMILES) | viability at 48 h, 25 µM [%]
1 | CCCCNC(=O)C(C#N)=Cc1cccc(Cl)c1Cl [9-H11, N-butyl-2-cyano-3-(2,3-dichlorophenyl)prop-2-enamide] | 24.1
2 | Cc1nccn1Cc1ccc(NC(=O)C(C#N)=Cc2ccco2)cc1 [9-H12, 2-cyano-3-(furan-2-yl)-N-{4-[(2-methyl-1H-imidazol-1-yl)methyl]phenyl}prop-2-enamide] | 93
3 | CCCCNC(=O)C(C#N)=Cc1ccc(Cl)cc1 [9-H13, N-butyl-3-(4-chlorophenyl)-2-cyanoprop-2-enamide] | 72.9
4 | COc1ccc(C=C(C#N)C(N)=O)c(Cl)c1OC [9-H14, 3-(2-chloro-3,4-dimethoxyphenyl)-2-cyanoprop-2-enamide] | 105
5 | N#CC(=Cc1ccc(N2CCCCCC2)cc1)C(=O)NCC1CCCO1 (stereo not shown) [9-H15, 3-[4-(azepan-1-yl)phenyl]-2-cyano-N-[(oxolan-2-yl)methyl]prop-2-enamide] | 71.9
6 | N#CC(=Cc1ccc(Cl)cc1)C(=O)Nc1ccccn1 [9-H16, 3-(4-chlorophenyl)-2-cyano-N-(pyridin-2-yl)prop-2-enamide] | 128
7 | N#CC(=Cc1ccc(-c2ccc(F)cc2)o1)C(=O)NC1CCCCC1 [9-H17, 2-cyano-N-cyclohexyl-3-[5-(4-fluorophenyl)furan-2-yl]prop-2-enamide] | 77.1
8 | N#CC(=Cc1c(C2CC2)nc2sccn12)C(=O)NC1CCCCC1 [9-H18, 2-cyano-N-cyclohexyl-3-{6-cyclopropylimidazo[2,1-b][1,3]thiazol-5-yl}prop-2-enamide] | 86.8
9 | N#CC(=Cc1ccc(Cl)cc1Cl)C(=O)Nc1nccs1 [9-H19, 2-cyano-3-(2,4-dichlorophenyl)-N-(1,3-thiazol-2-yl)prop-2-enamide] | 121
10 | N#CC(=Cc1ccco1)C(=O)NS(=O)(=O)c1cccc2cnccc12 [9-H20, 2-cyano-3-(furan-2-yl)-N-(isoquinoline-5-sulfonyl)prop-2-enamide] | 105
11 | COc1cc(C=C(C#N)C(=O)NC2CCCCC2C)cc(OC)c1O (stereo not shown) [9-H21, 2-cyano-3-(4-hydroxy-3,5-dimethoxyphenyl)-N-(2-methylcyclohexyl)prop-2-enamide] | 95.8
12 | N#CC(=Cc1ccsc1)C(=O)NCc1ccco1 [9-H22, 2-cyano-N-[(furan-2-yl)methyl]-3-(thiophen-3-yl)prop-2-enamide] | 123
13 | CCCn1c(C)cc(C=C(C#N)C(=O)N2CCCC2)c1C [9-I03, 3-(2,5-dimethyl-1-propyl-1H-pyrrol-3-yl)-2-(pyrrolidine-1-carbonyl)prop-2-enenitrile] | 134
14 | N#CC(=Cc1ccc(C(F)(F)F)cc1)C(=O)Nc1ccccc1 [9-I04, 2-cyano-N-phenyl-3-[4-(trifluoromethyl)phenyl]prop-2-enamide] | 93.7
15 | COc1cc(CNC(=O)C(C#N)=Cc2ccco2)c2ccccc2n1 [9-I05, 2-cyano-3-(furan-2-yl)-N-[(2-methoxyquinolin-4-yl)methyl]prop-2-enamide] | 114
16 | N#CC(=Cc1ccsc1)C(=O)Nc1ccc(Cl)cc1 [9-I06, N-(4-chlorophenyl)-2-cyano-3-(thiophen-3-yl)prop-2-enamide] | 112
17 | Cc1nn(C)c(C)c1C=C(C#N)C(=O)Nc1ccccc1F [9-I07, 2-cyano-N-(2-fluorophenyl)-3-(1,3,5-trimethyl-1H-pyrazol-4-yl)prop-2-enamide] | 122
18 | CN(C)c1ccc(C=C(C#N)C(=O)Nc2ccccc2C(=O)O)cc1 [9-I08, 2-{2-cyano-3-[4-(dimethylamino)phenyl]prop-2-enamido}benzoic acid] | 95.5
19 | CC(C)NC(=O)C(C#N)=Cc1ccc(F)cc1 [9-I09, 2-cyano-3-(4-fluorophenyl)-N-(propan-2-yl)prop-2-enamide] | 119
20 | COc1cc(C=C(C#N)C(=O)NCc2ccccc2)cc2c1OCCO2 [9-I10, N-benzyl-2-cyano-3-(8-methoxy-2,3-dihydro-1,4-benzodioxin-6-yl)prop-2-enamide] | 118
21 | CC(C)NC(=O)C(C#N)=Cc1ccc(C(C)C)cc1 [9-I11, 2-cyano-N-(propan-2-yl)-3-[4-(propan-2-yl)phenyl]prop-2-enamide] | 78.1
22 | Cc1cc(C=C(C#N)C(N)=O)c(C)n1-c1cccc2ccccc12 [9-I12, 2-cyano-3-[2,5-dimethyl-1-(naphthalen-1-yl)-1H-pyrrol-3-yl]prop-2-enamide] | 86.9
23 | CCOc1cc(C=C(C#N)C(=O)NC(C)C)cc(Cl)c1O [9-I13, 3-(3-chloro-5-ethoxy-4-hydroxyphenyl)-2-cyano-N-(propan-2-yl)prop-2-enamide] | 87.3
24 | N#CC(=Cc1cccnc1)C(=O)NCc1ccccc1 [9-I14, N-benzyl-2-cyano-3-(pyridin-3-yl)prop-2-enamide] | 113
25 | Cc1c(C=C(C#N)C(=O)NCc2ccccc2)cc(C#N)n1C [9-I15, N-benzyl-2-cyano-3-(5-cyano-1,2-dimethyl-1H-pyrrol-3-yl)prop-2-enamide] | 134

Row | Structure (SMILES) | viability at 48 h, 25 µM [%]
26 | N#CC(=Cc1ccc(O)cc1)C(=O)NCCc1c(F)cccc1F [9-I16, 2-cyano-N-[2-(2,6-difluorophenyl)ethyl]-3-(4-hydroxyphenyl)prop-2-enamide] | 121
27 | Cc1cc(C)c(NC(=O)C(C#N)=Cc2ccc(C)o2)c(C)c1 [9-I17, 2-cyano-3-(5-methylfuran-2-yl)-N-(2,4,6-trimethylphenyl)prop-2-enamide] | 94.3
28 | CC1=C(C#N)C(=O)N(C)C(=O)C1=Cc1ccc(-c2ccc(F)cc2)o1 [9-I18, 5-{[5-(4-fluorophenyl)furan-2-yl]methylidene}-1,4-dimethyl-2,6-dioxo-1,2,5,6-tetrahydropyridine-3-carbonitrile] | 125
29 | Cc1cccc(C=C(C#N)C(=O)Nc2ccc(F)cc2)c1 [9-I19, 2-cyano-N-(4-fluorophenyl)-3-(3-methylphenyl)prop-2-enamide] | 113
30 | N#CC(=Cc1c(F)cccc1F)C(=O)Nc1ccccc1Cl [9-I20, N-(2-chlorophenyl)-2-cyano-3-(2,6-difluorophenyl)prop-2-enamide] | 114
31 | CC(C)(C)c1ccc(C=C(C#N)C(=O)Nc2ccc(C(=O)O)cc2)cc1 [9-I21, 4-[3-(4-tert-butylphenyl)-2-cyanoprop-2-enamido]benzoic acid] | 128
32 | Cc1ccccc1NC(=O)C(C#N)=Cc1c(Cl)nc2ccccn12 [9-I22, 3-{2-chloroimidazo[1,2-a]pyridin-3-yl}-2-cyano-N-(2-methylphenyl)prop-2-enamide] | 134
33 | COc1cc(C=C(C#N)C(=O)Nc2nccs2)cc(OC)c1 [9-J03, 2-cyano-3-(3,5-dimethoxyphenyl)-N-(1,3-thiazol-2-yl)prop-2-enamide] | 104
34 | CC(NC(=O)C(C#N)=Cc1ccco1)c1cccc(-n2cccn2)c1 (stereo not shown) [9-J04, 2-cyano-3-(furan-2-yl)-N-{1-[3-(1H-pyrazol-1-yl)phenyl]ethyl}prop-2-enamide] | 95.9
35 | Cc1ccc(C=C(C#N)C(=O)Nc2cccc3ncccc23)cc1 [9-J05, 2-cyano-3-(4-methylphenyl)-N-(quinolin-5-yl)prop-2-enamide] | 123
36 | CCCCNC(=O)C(C#N)=Cc1ccc(C)s1 [9-J06, N-butyl-2-cyano-3-(5-methylthiophen-2-yl)prop-2-enamide] | 94.4
37 | CC(=Cc1ccccc1)C=C(C#N)C(=O)Nc1ccc2c(c1)OCCO2 [9-J07, 2-cyano-N-(2,3-dihydro-1,4-benzodioxin-6-yl)-4-methyl-5-phenylpenta-2,4-dienamide] | 79.5
38 | C=CCNC(=O)C(C#N)=CC=Cc1ccccc1 [9-J08, 2-cyano-5-phenyl-N-(prop-2-en-1-yl)penta-2,4-dienamide] | 96.5
39 | CC1CN(c2ccc(NC(=O)C(C#N)=Cc3ccco3)cc2)CC(C)O1 (stereo not shown) [9-J09, 2-cyano-N-[4-(2,6-dimethylmorpholin-4-yl)phenyl]-3-(furan-2-yl)prop-2-enamide] | 109
40 | N#CC(=Cc1coc2ccccc2c1=O)C(=O)NCCc1ccccc1 [9-J10, 2-cyano-3-(4-oxo-4H-chromen-3-yl)-N-(2-phenylethyl)prop-2-enamide] | 107
41 | CCCCNC(=O)C(C#N)=Cc1c(Cl)cccc1Cl [9-J11, N-butyl-2-cyano-3-(2,6-dichlorophenyl)prop-2-enamide] | 25.1
42 | N#CC(=Cc1c(F)cccc1F)C(=O)Nc1ccccc1F [9-J12, 2-cyano-3-(2,6-difluorophenyl)-N-(2-fluorophenyl)prop-2-enamide] | 103
43 | CC(C)NC(=O)C(C#N)=Cc1cccc(C(F)(F)F)c1 [9-J13, 2-cyano-N-(propan-2-yl)-3-[3-(trifluoromethyl)phenyl]prop-2-enamide] | 33.9
44 | Cc1cc(C=C(C#N)C(=O)Nc2nccs2)ccc1-n1cncn1 [9-J14, 2-cyano-3-[3-methyl-4-(1H-1,2,4-triazol-1-yl)phenyl]-N-(1,3-thiazol-2-yl)prop-2-enamide] | 104
45 | Cc1cc(-n2c(C)cc(C=C(C#N)C(=O)NC3CCCC3)c2C)no1 [9-J15, 2-cyano-N-cyclopentyl-3-[2,5-dimethyl-1-(5-methyl-1,2-oxazol-3-yl)-1H-pyrrol-3-yl]prop-2-enamide] | 91.8
46 | Cc1ncsc1C=C(C#N)C(=O)Nc1ccc(C(=O)N(C)C)cc1 [9-J16, 4-[2-cyano-3-(4-methyl-1,3-thiazol-5-yl)prop-2-enamido]-N,N-dimethylbenzamide] | 118
47 | Cc1nn(-c2ccccc2)c(Cl)c1C=C(C#N)C(=O)NC(C)C [9-J17, 3-(5-chloro-3-methyl-1-phenyl-1H-pyrazol-4-yl)-2-cyano-N-(propan-2-yl)prop-2-enamide] | 98.2
48 | N#CC(=Cc1ccco1)C(=O)NS(=O)(=O)N1CCc2ccccc21 [9-J18, 2-cyano-N-(2,3-dihydro-1H-indole-1-sulfonyl)-3-(furan-2-yl)prop-2-enamide] | 116
49 | N#CC(=Cc1ccc2c(c1)OCCO2)C(=O)NC1CCCCC1 [9-J19, 2-cyano-N-cyclohexyl-3-(2,3-dihydro-1,4-benzodioxin-6-yl)prop-2-enamide] | 118
